From PubChem BioAssay AID1259407 (Chemical Carcinogenesis Research Information System (CCRIS), 2018)
Active and inactive are the calls of the source. How the calls were made is not given here.

Test system: CCRIS mutagenicity, Ames/micronucleus/aberration tests
Test: CCRIS mutagenicity studies
Conditions: Test System: AMES SALMONELLA TYPHIMURIUM

Measured: mutagenic call

CCOC(=O)C1(CCCCCCOCc2cccs2)CO1 (configuration not stated)
inactive: Strain/Indicator: TA100, Metabolic Activation: NONE, Method: STANDARD PLATE inactive; negative | Strain/Indicator: TA100, Metabolic Activation: S-9, Method: STANDARD PLATE inactive; negative | Strain/Indicator: TA102, Metabolic Activation: NONE, Method: STANDARD PLATE inactive; negative | Strain/Indicator: TA102, Metabolic Activation: S-9, Method: STANDARD PLATE inactive; negative | Strain/Indicator: TA1535, Metabolic Activation: NONE, Method: STANDARD PLATE inactive; negative | Strain/Indicator: TA1535, Metabolic Activation: S-9, Method: STANDARD PLATE inactive; negative | Strain/Indicator: TA1537, Metabolic Activation: NONE, Method: STANDARD PLATE inactive; negative | Strain/Indicator: TA1537, Metabolic Activation: S-9, Method: STANDARD PLATE inactive; negative
active: Strain/Indicator: TA98, Metabolic Activation: NONE, Method: STANDARD PLATE active; positive | Strain/Indicator: TA98, Metabolic Activation: S-9, Method: STANDARD PLATE active; positive

CCN(CCCC(=O)O)N=O
active: Strain/Indicator: TA1535, Metabolic Activation: RAT, LIVER, S-9, KC500 OR PHENOBARBITAL, Method: LIQUID SUSPENSION active; positive

NC1c2ccccc2-c2ccccc21
inactive: Strain/Indicator: TA98, Metabolic Activation: RAT, LIVER, S-9, AROCLOR 1254 (2 OR 4%), Method: STANDARD PLATE inactive; negative | Strain/Indicator: TA100, Metabolic Activation: RAT, LIVER, S-9, AROCLOR 1254 (2%), Method: STANDARD PLATE inactive; negative | Strain/Indicator: TA1535, Metabolic Activation: RAT, LIVER, S-9, AROCLOR 1254 (2%), Method: STANDARD PLATE inactive; negative | Strain/Indicator: TA1537, Metabolic Activation: RAT, LIVER, S-9, AROCLOR 1254 (2%), Method: STANDARD PLATE inactive; negative

CC(=O)OC[C@@]1(O)CC23CC[C@@H]4c5ccoc5CC[C@@]4(C)[C@@H]2CC[C@@H]1C3
inactive: Strain/Indicator: TM677, Metabolic Activation: NONE, Method: PREINCUBATION inactive; negative | Strain/Indicator: TM677, Metabolic Activation: RAT, LIVER, S-9, AROCLOR 1254, Method: PREINCUBATION inactive; negative
